# Patent EP4635500A1, “THERAPEUTIC AGENT FOR BACTERIAL INFECTION” (Sumitomo Pharma Co., Ltd., priority 2022, dated 2024)
# Like-named read-outs stand apart in the source and are kept apart here.
# Legend:
# Type in all cases: cell-based
# [1] = system: P. aeruginosa; test: MIC, broth microdilution, CDC/FDA Antibiotic Resistance Isolate Bank (Example 7, Tables 10, 15)
# [2] = system: Providencia rettgeri; test: MIC, broth microdilution, standard strains and Japanese clinical isolates (Example 5, Table 4); settings: ATCCBAA2525; KUB4010 Providencia rettgeri ATCC BAA-2525, OXA-181
# [3] = system: CRE and CPE strains; test: MIC, broth microdilution, standard strains and Japanese clinical isolates (Example 5, Table 4 continued; organism of each KUB strain not given)
# [4] = system: Escherichia coli; test: MIC, broth microdilution, standard strains and Japanese clinical isolates (Example 5, Table 4)
# [5] = system: 53 CRE and CPE strains; test: MICrange, MIC50, MIC80, MIC90 for 53 bacterial isolates (Example 5, Table 5); settings: 53 bacterial isolates
# [6] = system: Enterobacter cloacae; test: MIC, broth microdilution, standard strains and Japanese clinical isolates (Example 5, Table 4)
# [7] = system: Enterobacter hormaechei; test: as above; settings: ATCCBAA2082; KUB4001 Enterobacter hormaechei ATCC BAA-2082, KPC-2
# [8] = system: Klebsiella pneumoniae; test: as above
# [9] = system: Enterobacterales; test: MIC, broth microdilution, CDC/FDA Antibiotic Resistance Isolate Bank (Example 7, Tables 8, 11, 12)
compound,measurement,setting,value
O=C(O)c1cn(C2CC2)c2cc(N3CCNCC3)c(F)cc2c1=O [Ciyprofloxacin],MIC,"[1]; P. aeruginosa KUB No. 5681, AR Bank # 248",8 µg/mL
same,MIC,"[1]; P. aeruginosa KUB No. 5684, AR Bank # 251",4 µg/mL
same,MIC,"[1]; P. aeruginosa KUB No. 5685, AR Bank # 252",8 µg/mL
same,MIC,"[1]; P. aeruginosa KUB No. 5694, AR Bank # 261",2 µg/mL
same,MIC,"[1]; P. aeruginosa KUB No. 5695, AR Bank # 262",0.5 µg/mL
same,MIC,"[1]; P. aeruginosa KUB No. 5696, AR Bank # 263",1 µg/mL
same,MIC,"[1]; P. aeruginosa KUB No. 5700, AR Bank # 267",8 µg/mL
same,MIC,"[1]; P. aeruginosa KUB No. 5701, AR Bank # 268",4 µg/mL
same,MIC,"[1]; P. aeruginosa KUB No. 5703, AR Bank # 270",8 µg/mL
"C[C@@H](O)[C@H]1C(=O)N2C(C(=O)O)=C(SCCN=CN)C[C@H]12 [Imipenem, imipenem]",MIC,[2],4 µg/mL
same,MIC,"[3]; strain KUB3148, carbapenemase gene KPC-3, read-out: MIC",1 µg/mL
same,MIC,"[3]; strain KUB3149, carbapenemase gene NDM-1, read-out: MIC",4 µg/mL
same,MIC,"[3]; strain KUB3150, carbapenemase gene OXA-48, read-out: MIC",0.5 µg/mL
same,MIC,"[3]; strain KUB3151, carbapenemase gene IMP-1, read-out: MIC",0.5 µg/mL
same,MIC,"[3]; strain KUB3152, carbapenemase gene KPC-2, read-out: MIC",8 µg/mL
same,MIC,"[3]; strain KUB3153, carbapenemase gene KPC-3, read-out: MIC",16 µg/mL
same,MIC,"[3]; strain KUB3154, carbapenemase gene KPC-2, read-out: MIC",1 µg/mL
same,MIC,"[3]; strain KUB3163, carbapenemase gene IMP-1",2 µg/mL
same,MIC,"[3]; strain KUB3606, carbapenemase gene KPC-38",> 32 µg/mL
same,MIC,"[3]; strain KUB3620, carbapenemase gene -",32 µg/mL
same,MIC,"[3]; strain KUB3628, carbapenemase gene IMP-1",32 µg/mL
same,MIC,"[3]; strain KUB3629, carbapenemase gene IMP-1",8 µg/mL
same,MIC,"[4]; ATCCBAA2452, KUB4005 Escherichia coli ATCC BAA-2452, NDM-1",4 µg/mL
same,MIC,"[4]; ATCCBAA2471, KUB4007 Escherichia coli ATCC BAA-2471, NDM-6",32 µg/mL
same,MIC50,[5]; read-out: MIC50,4 µg/mL
same,MIC80,[5]; read-out: MIC80,32 µg/mL
same,MIC90,[5]; read-out: MIC90,32 µg/mL
same,MIC,"[6]; ATCCBAA2341, KUB4002 Enterobacter cloacae ATCC BAA-2341, KPC-3",16 µg/mL
same,MIC,"[6]; ATCCBAA2468, KUB4006 Enterobacter cloacae ATCC BAA-2468, NDM-1",> 32 µg/mL
same,MIC,[7],32 µg/mL
same,MIC,"[8]; ATCCBAA1898, KUB3996 Klebsiella pneumoniae ATCC BAA-1898, KPC-2",32 µg/mL
same,MIC,"[8]; ATCCBAA1899, KUB3997 Klebsiella pneumoniae ATCC BAA-1899, KPC-2",8 µg/mL
same,MIC,"[8]; ATCCBAA1900, KUB3998 Klebsiella pneumoniae ATCC BAA-1900, KPC-3",32 µg/mL
same,MIC,"[8]; ATCCBAA1904, KUB3999 Klebsiella pneumoniae ATCC BAA-1904, KPC-3",4 µg/mL
same,MIC,"[8]; ATCCBAA2078, KUB4000 Klebsiella pneumoniae ATCC BAA-2078, KPC-3",8 µg/mL
same,MIC,"[8]; ATCCBAA2146, KUB4011 Klebsiella pneumoniae ATCC BAA-2146, NDM-1",> 32 µg/mL
same,MIC,"[8]; ATCCBAA2342, KUB4003 Klebsiella pneumoniae ATCC BAA-2342, KPC-3",8 µg/mL
same,MIC,"[8]; ATCCBAA2343, KUB4004 Klebsiella pneumoniae ATCC BAA-2343, KPC-3",16 µg/mL
same,MIC,"[8]; ATCCBAA2472, KUB4008 Klebsiella pneumoniae subsp. Pneumoniae ATCC BAA-2472, NDM-1",32 µg/mL
same,MIC,"[8]; ATCCBAA2473, KUB4009 Klebsiella pneumoniae ATCC BAA-2473, NDM-1",32 µg/mL
same,MIC,"[8]; KUB3631 Klebsiella pneumoniae Clinical isolate, IMP-1",1 µg/mL
same,MIC,"[8]; KUB3633 Klebsiella pneumoniae Clinical isolate, IMP-6",0.12 µg/mL
same,MIC,"[8]; KUB3634 Klebsiella pneumoniae Clinical isolate, IMP-6",0.12 µg/mL
same,MIC,"[8]; KUB3635 Klebsiella pneumoniae Clinical isolate, IMP-1",> 32 µg/mL
C[C@H]1COc2c(N3CCN(C)CC3)c(F)cc3c(=O)c(C(=O)O)cn1c23 [Levoflexacin],MIC,"[9]; Enterobacter aerogenes, KUB No. 5559, AR Bank # 62",2 µg/mL
same,MIC,"[9]; Enterobacter aerogenes, KUB No. 5571, AR Bank # 74",0.12 µg/mL
same,MIC,"[9]; Enterobacter cloacae, KUB No. 5562, AR Bank # 65",0.12 µg/mL
same,MIC,"[9]; Enterobacter cloacae, KUB No. 5569, AR Bank # 72",0.5 µg/mL
same,MIC,"[9]; Enterobacter cloacae, KUB No. 5570, AR Bank # 73",0.25 µg/mL
same,MIC,"[9]; Enterobacter cloacae, KUB No. 5590, AR Bank # 93",4 µg/mL
same,MIC,"[9]; Escherichia coli, KUB No. 5558, AR Bank # 61",0.12 µg/mL
same,MIC,"[9]; Escherichia coli, KUB No. 5564, AR Bank # 67",32 µg/mL
same,MIC,"[9]; Escherichia coli, KUB No. 5566, AR Bank # 69",0.12 µg/mL
same,MIC,"[9]; Escherichia coli, KUB No. 5574, AR Bank # 77",0.06 µg/mL
same,MIC,"[9]; Escherichia coli, KUB No. 5578, AR Bank # 81",32 µg/mL
same,MIC,"[9]; Escherichia coli, KUB No. 5581, AR Bank # 84",64 µg/mL
same,MIC,"[9]; Escherichia coli, KUB No. 5582, AR Bank # 85",32 µg/mL
same,MIC,"[9]; Escherichia coli, KUB No. 5583, AR Bank # 86",8 µg/mL
same,MIC,"[9]; Escherichia coli, KUB No. 5586, AR Bank # 89",0.12 µg/mL
same,MIC,"[9]; Klebsiella oxytoca, KUB No. 5568, AR Bank # 71",0.5 µg/mL
same,MIC,"[9]; Klebsiella ozaenae, KUB No. 5593, AR Bank # 96",32 µg/mL
same,MIC,"[9]; Klebsiella pneumoniae, KUB No. 5563, AR Bank # 66",64 µg/mL
same,MIC,"[9]; Klebsiella pneumoniae, KUB No. 5565, AR Bank # 68",64 µg/mL
same,MIC,"[9]; Klebsiella pneumoniae, KUB No. 5572, AR Bank # 75",>64 µg/mL
same,MIC,"[9]; Klebsiella pneumoniae, KUB No. 5573, AR Bank # 76",1 µg/mL
same,MIC,"[9]; Klebsiella pneumoniae, KUB No. 5576, AR Bank # 79",64 µg/mL
same,MIC,"[9]; Klebsiella pneumoniae, KUB No. 5577, AR Bank # 80",0.12 µg/mL
same,MIC,"[9]; Klebsiella pneumoniae, KUB No. 5584, AR Bank # 87",>64 µg/mL
same,MIC,"[9]; Klebsiella pneumoniae, KUB No. 5594, AR Bank # 97",>64 µg/mL
same,MIC,"[9]; Klebsiella pneumoniae, KUB No. 5595, AR Bank # 98",64 µg/mL
same,MIC,"[9]; Providencia rettgeri, KUB No. 5579, AR Bank # 82",0.25 µg/mL
same,MIC,"[9]; Serratia marcescens, KUB No. 5588, AR Bank # 91",0.25 µg/mL
